Source: patent publication US12569509B2, “Method and composition for preventing and treating viral infections” (priority 2017, dated 2026)
Values joined by “and” are separate entries in the source; they are usually repeats but may differ in a detail not shown here. Identical values can stand only once. “Also recorded” adds a separate entry of the source.

What was measured:
RecQ helicase = molecular target: T1, RecQ helicase (Escherichia coli, UniProt P15043); assay: Cell-free fluorescence molecular beacon helicase assay; format: biochemical, E. coli; design: Average rate of reaction / Rate (Triplicate): unit: RFU/min; conditions: for Fluorescence at 35 minutes, Run 2 / Fluorescence at time 0, Run 2: duplicate, listed as H; for Average rate of reaction: mean of triplicate; for Rate (Triplicate): rate of reaction=(F0-F35)/35; for Change in helicase activity compared to the DMSO control: any of the tested concentrations (0.06-200 μg/mL)
T1 construct: a full-length E. coli helicase, RecQ, was used
T1 sequence (P15043 whole entry): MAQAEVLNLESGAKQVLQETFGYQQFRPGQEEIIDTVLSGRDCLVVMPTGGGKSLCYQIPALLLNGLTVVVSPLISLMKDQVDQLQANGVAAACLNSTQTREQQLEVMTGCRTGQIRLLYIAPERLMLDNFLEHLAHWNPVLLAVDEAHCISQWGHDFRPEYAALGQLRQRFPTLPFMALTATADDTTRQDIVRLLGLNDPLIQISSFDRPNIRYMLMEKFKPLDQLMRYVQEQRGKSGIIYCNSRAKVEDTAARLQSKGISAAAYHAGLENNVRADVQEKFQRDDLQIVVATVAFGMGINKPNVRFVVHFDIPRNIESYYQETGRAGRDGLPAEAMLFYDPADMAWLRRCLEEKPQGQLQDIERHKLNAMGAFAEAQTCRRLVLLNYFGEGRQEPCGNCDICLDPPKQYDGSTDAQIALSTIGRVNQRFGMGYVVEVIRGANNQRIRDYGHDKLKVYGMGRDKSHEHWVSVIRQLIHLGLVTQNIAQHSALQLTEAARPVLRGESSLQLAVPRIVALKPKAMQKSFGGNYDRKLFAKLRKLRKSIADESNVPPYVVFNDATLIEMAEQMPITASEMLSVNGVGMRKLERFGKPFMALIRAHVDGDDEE

human PBMC [1] = assay: LPS stimulated cytokine secretion in human PBMC pretreated with compounds (Phase 2); format: cell-based; design: TNF-α concentration in supernatant / IL-1β concentration in supernatant / IL-6 concentration in supernatant / IL-2 concentration in supernatant / IFN-g concentration in supernatant: unit of the concentration uncertain; conditions: for IL-1β Mean Fold-Change (Relative to LPS alone) / IL-6 Mean Fold-Change (Relative to LPS alone) / TNF-α Mean Fold-Change (Relative to LPS alone): 1 ng/mL LPS stimulation for 8 hours, means from 3 donors; for IL-2 concentration in supernatant / TNF-α concentration in supernatant / IL-1β concentration in supernatant / IFN-g concentration in supernatant / IL-6 concentration in supernatant: 8-hour 1 ng/mL LPS stimulation; for IL-2 concentration in supernatant: LLOQ = 1.698 pg/mL; for TNF-α concentration in supernatant: LLOQ = 2.018 pg/mL; for IL-1β concentration in supernatant: LLOQ = 2.299 pg/mL; for IFN-g concentration in supernatant: LLOQ = 2.792 pg/mL; for IL-6 concentration in supernatant: LLOQ = 0.831
human PBMC [2] = assay: Test compound induced cytokine secretion in human PBMC without LPS, 10 or 26 hours (Phase 1); conditions: 100 μM, 26 hours, no LPS
Method: Secretion of the cytokines TNF-α (A), IL-1β (B) and IL-6 (C) were measured in supernatant of PBMC cultured in the presence of test compounds using a Luminex platform with the Milliplex MAP Human High Sensitivity T Cell Panel Immunology Multiplex Assay. Results are represented as a mean from 3 separate donors in pg/mL.
Whole blood was collected from 3 human donors and peripheral blood mononuclear cells (PBMC) were isolated using the Ficoll-Paque density gradient method. PBMC were then plated and left untouched for 2 hours to account for a 2 hours pretreatement period (see below for details), and incubated for 8 or 24 hours in a humidified incubator set to maintain 37° C. with 5% CO2, with different concentrations of LPS as per Table 11 in order to determine the optimal stimulation conditions to detect cytokine release. […] RPMI medium alone or supplemented with 0.1% DMSO (to mimic treatment conditions) were used as negative controls.
At the end of the incubation period, supernatant samples were recovered and stored at −80° C. until analysis (in duplicate) using a Luminex platform with the Milliplex MAP Human High Sensitivity T Cell Panel Immunology Multiplex Assay (Cat. No. HSTCMAG-28SK) with the following selected cytokines of interest: IL-1, IL-2, IL-6, IFN-g and TNF-α. Each assay was defined by one calibration curve and 2 sets of QCs and the results were expressed as pg/mL.

[3] = TA 0.06 μg/mL (plate column 4, wells A-C)
[4] = TA 0.2 μg/mL (plate column 5, wells A-C)
[5] = TA 0.6 μg/mL (plate column 6, wells A-C)
[6] = TA 2 μg/mL (plate column 7, wells A-C)
[7] = TA 6 μg/mL (plate column 8, wells A-C)
[8] = TA 60 μg/mL (plate column 10, wells A-C)
[9] = TA 200 + Buffer (plate column 12, wells A-C)

Q: Which results are given for COc1ccc([C@@H]2CC(=O)c3c(O)cc(O[C@@H]4O[C@H](CO[C@@H]5O[C@@H](C)[C@H](O)[C@@H](O)[C@H]5O)[C@@H](O)[C@H](O)[C@H]4O)cc3O2)cc1O [Hesperidin]?
A: Fluorescence at 35 minutes, Run 2 (RecQ helicase; 0.06 μg/mL): 2987 RFU and 3023 RFU; Fluorescence at time 0, Run 2 (RecQ helicase; 0.06 μg/mL): 5870 RFU and 7788 RFU; Average rate of reaction (RecQ helicase; 0.06 μg/mL): 61.47; Average rate of reaction (RecQ helicase; 0.2 μg/mL): 53.5; Rate (Triplicate) (RecQ helicase; 0.2 μg/mL): 47.51 and 71.4 and 41.6; Fluorescence at 35 minutes, Run 2 (RecQ helicase; 0.6 μg/mL): 2677 RFU and 2621 RFU; Fluorescence at time 0, Run 2 (RecQ helicase; 0.6 μg/mL): 9523 RFU and 7721 RFU; Average rate of reaction (RecQ helicase; 0.6 μg/mL): 107.9714; Fluorescence at 35 minutes, Run 2 (RecQ helicase; 2 μg/mL): 2624 RFU and 2801 RFU; Average rate of reaction (RecQ helicase; 2.0 μg/mL): 110.1429; Rate (Triplicate) (RecQ helicase; 2.0 μg/mL): 108.1714 and 140.8 and 81.46; Fluorescence at 35 minutes, Run 2 (RecQ helicase; 6 μg/mL): 2526 RFU and 2818 RFU; Fluorescence at time 0, Run 2 (RecQ helicase; 6 μg/mL): 8127 RFU and 9570 RFU; Average rate of reaction (RecQ helicase; 6.0 μg/mL): 169.7048; Fluorescence at 35 minutes, Run 2 (RecQ helicase; 20 μg/mL): 3653 RFU and 3927 RFU; Fluorescence at time 0, Run 2 (RecQ helicase; 20 μg/mL): 4464 RFU and 8870 RFU; Average rate of reaction (RecQ helicase; 20.0 μg/mL): 55.09; Fluorescence at 35 minutes, Run 2 (RecQ helicase; 60 μg/mL): 4250 RFU and 4180 RFU; Fluorescence at time 0, Run 2 (RecQ helicase; 60 μg/mL): 4134 RFU and 3133 RFU; Average rate of reaction (RecQ helicase; 60.0 μg/mL): 58.1; Fluorescence at 35 minutes, Run 2 (RecQ helicase; 200 μg/mL): 3913 RFU and 4063 RFU; Average rate of reaction (RecQ helicase; 200.0 μg/mL): 90.4381; Fluorescence at 0:00:00, Run 1 (RecQ helicase; [3]): 5759 RFU and 9125 RFU and 10456 RFU; Fluorescence at 0:35:00, Run 1 (RecQ helicase; [3]): 5467 RFU and 6877 RFU and 6542 RFU; Fluorescence at 0:00:00, Run 1 (RecQ helicase; [4]): 7735 RFU and 8642 RFU and 7853 RFU; Fluorescence at 0:35:00, Run 1 (RecQ helicase; [4]): 6072 RFU and 6143 RFU and 6397 RFU; Fluorescence at 0:00:00, Run 1 (RecQ helicase; [5]): 7559 RFU and 14137 RFU and 7347 RFU; Fluorescence at 0:35:00, Run 1 (RecQ helicase; [5]): 5304 RFU and 6502 RFU and 5900 RFU; Fluorescence at 0:00:00, Run 1 (RecQ helicase; [6]): 10359 RFU and 11454 RFU and 8360 RFU; Fluorescence at 0:35:00, Run 1 (RecQ helicase; [6]): 6573 RFU and 6526 RFU and 5509 RFU; Fluorescence at 0:00:00, Run 1 (RecQ helicase; [7]): 10222 RFU and 10590 RFU and 17264 RFU; Fluorescence at 0:35:00, Run 1 (RecQ helicase; [7]): 6164 RFU and 5213 RFU and 8880 RFU; Fluorescence at 0:00:00, Run 1 (RecQ helicase; [8]): 10452 RFU and 7252 RFU and 7210 RFU; Fluorescence at 0:35:00, Run 1 (RecQ helicase; [8]): 7008 RFU and 6217 RFU and 5588 RFU; Fluorescence at 0:35:00, Run 1 (RecQ helicase; TA 200 μg/mL (plate column 11, wells A-C)): 7231 RFU and 6648 RFU and 7799 RFU; Fluorescence at 0:00:00, Run 1 (RecQ helicase; [9]): 10477 RFU and 15660 RFU and 9770 RFU; Fluorescence at 0:35:00, Run 1 (RecQ helicase; [9]): 9155 RFU and 9497 RFU and 7774 RFU; Change in helicase activity compared to the DMSO control (RecQ helicase): no observed clear change; Change in helicase activity compared to the DMSO control (RecQ helicase; listed as hesperidin): no effect; IL-1β Mean Fold-Change (Relative to LPS alone) (human PBMC [1]; 10 mM (so in the source)): 1.14; IL-6 Mean Fold-Change (Relative to LPS alone) (human PBMC [1]; 10 mM (so in the source)): 1.10; TNF-α Mean Fold-Change (Relative to LPS alone) (human PBMC [1]; 10 mM (so in the source)): 0.98; IL-1β Mean Fold-Change (Relative to LPS alone) (human PBMC [1]; 100 mM (so in the source)): 1.30; IL-6 Mean Fold-Change (Relative to LPS alone) (human PBMC [1]; 100 mM (so in the source)): 1.24; TNF-α Mean Fold-Change (Relative to LPS alone) (human PBMC [1]; 100 mM (so in the source)): 1.20; Effect on LPS stimulated secretion of IL-1b (human PBMC [1]; 200 mM (so in the source), 2 h pretreatment, 1 ng/mL LPS 8 hours): increase; also recorded: appeared to enhance; also recorded: potentiate; IL-1β Mean Fold-Change (Relative to LPS alone) (human PBMC [1]; 200 mM (so in the source)): 1.54; IL-6 Mean Fold-Change (Relative to LPS alone) (human PBMC [1]; 200 mM (so in the source)): 1.25; TNF-α Mean Fold-Change (Relative to LPS alone) (human PBMC [1]; 200 mM (so in the source)): 1.14; IL-2 concentration in supernatant (human PBMC [1]; Donor 1, 10 (unit uncertain)): <LLOQ; TNF-α concentration in supernatant (human PBMC [1]; Donor 1, 10 (unit uncertain)): 1889.91 pg/mL; IL-1β concentration in supernatant (human PBMC [1]; Donor 1, 10 (unit uncertain)): 3059.18 pg/mL; IFN-g concentration in supernatant (human PBMC [1]; Donor 1, 10 (unit uncertain)): <LLOQ; IL-6 concentration in supernatant (human PBMC [1]; Donor 1, 10 (unit uncertain)): 1099.07 pg/mL; IL-2 concentration in supernatant (human PBMC [1]; Donor 1, 100 (unit uncertain)): <LLOQ; TNF-α concentration in supernatant (human PBMC [1]; Donor 1, 100 (unit uncertain)): 2577.7 pg/mL; IL-1β concentration in supernatant (human PBMC [1]; Donor 1, 100 (unit uncertain)): 3955.41 pg/mL; IFN-g concentration in supernatant (human PBMC [1]; Donor 1, 100 (unit uncertain)): <LLOQ; IL-6 concentration in supernatant (human PBMC [1]; Donor 1, 100 (unit uncertain)): 1441.95 pg/mL; IL-2 concentration in supernatant (human PBMC [1]; Donor 1, 200 (unit uncertain)): <LLOQ; TNF-α concentration in supernatant (human PBMC [1]; Donor 1, 200 (unit uncertain)): 2290.76 pg/mL; IL-1β concentration in supernatant (human PBMC [1]; Donor 1, 200 (unit uncertain)): 4853.62 pg/mL; IFN-g concentration in supernatant (human PBMC [1]; Donor 1, 200 (unit uncertain)): <LLOQ; IL-6 concentration in supernatant (human PBMC [1]; Donor 1, 200 (unit uncertain)): 1485.45 pg/mL; IL-2 concentration in supernatant (human PBMC [1]; Donor 2, 10 (unit uncertain)): <LLOQ; TNF-α concentration in supernatant (human PBMC [1]; Donor 2, 10 (unit uncertain)): 1091.56 pg/mL; IL-1β concentration in supernatant (human PBMC [1]; Donor 2, 10 (unit uncertain)): 2855.56 pg/mL; IFN-g concentration in supernatant (human PBMC [1]; Donor 2, 10 (unit uncertain)): <LLOQ; IL-2 concentration in supernatant (human PBMC [1]; Donor 2, 100 (unit uncertain)): <LLOQ; TNF-α concentration in supernatant (human PBMC [1]; Donor 2, 100 (unit uncertain)): 1254.84 pg/mL; IL-1β concentration in supernatant (human PBMC [1]; Donor 2, 100 (unit uncertain)): 2344.12 pg/mL; IFN-g concentration in supernatant (human PBMC [1]; Donor 2, 100 (unit uncertain)): <LLOQ; IL-2 concentration in supernatant (human PBMC [1]; Donor 2, 200 (unit uncertain)): <LLOQ; TNF-α concentration in supernatant (human PBMC [1]; Donor 2, 200 (unit uncertain)): 1621.58 pg/mL; IL-1β concentration in supernatant (human PBMC [1]; Donor 2, 200 (unit uncertain)): 3244.42 pg/mL; IFN-g concentration in supernatant (human PBMC [1]; Donor 2, 200 (unit uncertain)): <LLOQ; IL-2 concentration in supernatant (human PBMC [1]; Donor 3, 10 (unit uncertain)): <LLOQ; TNF-α concentration in supernatant (human PBMC [1]; Donor 3, 10 (unit uncertain)): 3632.86 pg/mL; IL-1β concentration in supernatant (human PBMC [1]; Donor 3, 10 (unit uncertain)): 3800.6 pg/mL; IFN-g concentration in supernatant (human PBMC [1]; Donor 3, 10 (unit uncertain)): <LLOQ; IL-2 concentration in supernatant (human PBMC [1]; Donor 3, 100 (unit uncertain)): <LLOQ; TNF-α concentration in supernatant (human PBMC [1]; Donor 3, 100 (unit uncertain)): 3808.52 pg/mL; IL-1β concentration in supernatant (human PBMC [1]; Donor 3, 100 (unit uncertain)): 4941.84 pg/mL; IFN-g concentration in supernatant (human PBMC [1]; Donor 3, 100 (unit uncertain)): <LLOQ; IL-2 concentration in supernatant (human PBMC [1]; Donor 3, 200 (unit uncertain)): <LLOQ; TNF-α concentration in supernatant (human PBMC [1]; Donor 3, 200 (unit uncertain)): 2731.72 pg/mL; IL-1β concentration in supernatant (human PBMC [1]; Donor 3, 200 (unit uncertain)): 4883.06 pg/mL; IFN-g concentration in supernatant (human PBMC [1]; Donor 3, 200 (unit uncertain)): <LLOQ; Secretion of IL-1β and IL-6, compound alone (human PBMC [2]): in one donor, secretion of IL-1β, and IL-6 was also observed
